Test results: patent US20140303260A1, “PHARMACEUTICAL COMPOSITIONS OF RESVERATROL” (NAD Life Pty Ltd, priority 2011, published 2014)

Legend:
[1] = cited from earlier work
[2] = test system: blood NAD levels; test: NAD levels in a test group of subjects after administration of resveratrol, buccal/sublingual composition versus oral; assay type: in vivo, human
Experimental: A 35% increased blood NAD level was sustained at 4 hrs compared to baseline. […] The comparison of the effect on NAD levels between oral administration of resveratrol and buccal/sublingual membrane administration of resveratrol is best shown in FIG. 3. This graph depicts the difference in the change in a subject's NAD levels (in ng/mL) when resveratrol is administered orally (absorption through the gastrointestinal tract) compared to when resveratrol is administrated by the pharmaceutical composition of the present invention (absorption through the buccal/sublingual membranes).

Oc1ccc(C=Cc2cc(O)cc(O)c2)cc1 [resveratrol]
solubility in aqueous solutions [1]: almost insoluble
increase in blood NAD levels ([2]; absorption through buccal/sublingual membranes (FIG. 1), at 1 hr (60 min)): 41%
increased blood NAD level sustained compared to baseline ([2]; absorption through buccal/sublingual membranes, at 4 hrs): 35%
change in blood NAD levels ([2]; delivered via powdered slurry (gastrointestinal absorption alone)): No observable change
level of NAD after oral administration ([2]; oral, absorbed through the gastrointestinal tract (FIG. 2), in only some of the people in the group): only a mild increase
